Activity calls are given as the source filed them. The rule behind the calls is not given here.

For the first experiment, the system named is TA3. Kind of experiment: Antitumor activity against mouse TA3 cells assessed as growth inhibition. The format is functional.
As for `N[C@@H](CSC(c1ccccc1)(c1ccccc1)c1ccccc1)C(=O)O` [S-TRITYL-L-CYSTEINE], the ID50 is reported as 6.3 ×10⁻⁷ M.
On to `CC(=O)N1[C@@H](c2ccc(C)cc2)SC[C@H]1C(=O)CCl`, for which the ID50 stood at 3.2 ×10⁻⁵ M.

The subject of a further experiment is TA3. Kind of experiment: Antitumor activity against mouse TA3 cells assessed as growth inhibition at 10^-4 M. It is filed as functional, cell-based.
With `Cc1ccc(C2NC(C(=O)O)C(C)(C)S2)cc1` (centres undefined), the “growth inhibition (GI)” value was “inactive”.
With `CC(=O)N1[C@@H](c2ccc(C)cc2)SC[C@H]1C(=O)O`, the “growth inhibition (GI)” value was “inactive”.
Take `CC(=O)N1C(c2ccc(C)cc2)SC(C)(C)C1C(=O)O` (centres undefined): the “growth inhibition (GI)” value was “inactive”.
Same read-out and setting: for `CC(=O)N1[C@@H](c2ccc(C)cc2)SC[C@H]1C(=O)C=[N+]=[N-]` the value was “inactive”.

The test system of another experiment is TA3. Kind of experiment: Induction of growth in mouse TA3 cell at 10^-4 M. The format is functional, cell-based.
`Cc1ccc([C@@H]2N[C@H](C(=O)O)CS2)cc1`: the outcome was Active.
On to `CC(=O)N1[C@@H](c2ccc(C)cc2)SC[C@H]1C(=O)O`, for which the result was inactive.
Take `Cc1ccc([C@H]2SC[C@@H](C(=O)O)N2C(=O)C(F)(F)F)cc1`: the outcome was inactive.

(Values after ChEMBL document CHEMBL3272015, “Cysteine derivatives with reactive groups as potential antitumor agents” (1976).)
